Experimental data published in patent US20240000950A1, “THERAPEUTIC CURE-PRO COMPOUNDS FOR TARGETED DEGRADATION OF BET DOMAIN PROTEINS, AND METHODS OF MAKING AND USING THEM” (CORNELL UNIVERSITY, priority 2020, published 2024).
Entries after “also recorded” stand apart in the source; their conditions may differ.

What was measured:
BRD4 [1] = molecular target: T1, BRD4 (Homo sapiens, UniProt O60885); assay: CURE-PRO-mediated BRD4 degradation in HeLa cells, Western blot; format: cell-based; parameters: endogenous in cells; host or cells: HeLa; conditions: 24 h, 10 μM
Protocol: (§1) All cell lines were purchased from ATCC or DSMZ and grown at 37° C. with 5% C02. Human HeLa cells were cultured in complete growth medium (Dulbecco's modified Eagle's medium (DMEM) supplemented with 10% FBS); MCF7 cells were cultured in complete growth medium (Dulbecco's modified Eagle's medium (DMEM) supplemented with 10% FBS and 0.01 mg/ml human recombinant insulin (Sigma Aldrich); Namalwa and MOLM-13 cells were cultured in complete growth medium (RPMI 1640 medium supplemented with 10% FBS); MV-4-11 were cultured in complete growth medium (Iscove's Modified Dulbecco's medium, supplemented with 10% FBS); HCT116 cells were cultured in complete growth medium (McCoy's 5a Medium supplemented with 10% FBS). For cellular degradation of BRD4 studies, cells were seeded in a 12-well plate at 70-80% confluency, allowed to attach overnight, and incubated with the indicated compounds for the indicated time. When indicated, a 15-minute pretreatment with 10 μM pomalidomide, 10 μM VHL298, 10 μM Nutlin3a, 1 μM MG-132 or 1 μM Carfilzomib was performed before the addition of CURE-PROs. For washout studies, after CURE-PRO treatment, media was aspirated and incubated with complete medium for the indicated time before lysis.
(§2) Anti-BRD4 (13440, 1:1,000 dilution for Western Blot and 1:25 dilution for ProteinSimple); Anti-BRD2 (5848 1:1,000 dilution for Western Blot and 1:25 dilution for ProteinSimple); β-Actin (3700, 1:2,000 dilution for Western Blot), β-Actin (4970, 1:50 dilution for ProteinSimple) anti-mouse IgG-HRP, and anti-rabbit IgG-HRP antibodies were purchased Cell Signaling Technology. Anti-GAPDH (600-401-A33, 1:100 dilution for ProteinSimple) was purchased from Rockland Immunochemicals, Inc. Anti-BRD3 (sc-81202, 1:200 dilution for Western Blot) was purchased from Santa Cruz Biotechnology.
HeLa, MCF7, or HCT116 cells (2.5-3×10^6) were treated for 24 hours with the indicated compounds solubilized in DMSO. The cells were washed in ice-cold PBS and were then lysed in RIPA lysis buffer (150 mM NaCl, 5 mM EDTA, 1% NP-40, 0.5% sodium deoxycholate, 0.1% SDS, 50 mM Tris, pH 8.0) with Roche protease inhibitor complete cocktail and phosphatase inhibitors (10 mM sodium fluoride, 10 mM sodium pyrophosphate, 1 mM sodium orthovanadate and 20 mM β-glycerophosphate). The total protein concentrations were determined by Bradford Protein Assay and 10-20 μg of protein was loaded onto 4-15% Tris-Glycine gradient gels (Biorad). After standard gel electrophoresis, the separated proteins were transferred to PVDF membrane by wet transfer. The immunoblots were then blocked for 1 hour in 5% skim milk in TBST or 5% BSA in TBST, according to manufacturer's instructions, before an overnight incubation at 4° C. with indicated antibodies and membranes. Membranes were then incubated with the appropriate horseradish peroxidase-conjugated secondary antibodies (1:5,000 dilution) for 1 h at room temperature and the bands were visualized using the Clarity Max Western ECL Substrate (Biorad) and the ChemiDoc Imaging System (Biorad). Signal was detected with ECL Western Blotting Substrate (Pierce) and X-ray film processed with a Konica SRX-101 X-ray film processor or captured by Bio-Rad's Chemidoc Imaging system.
HeLa cells (2.5×10^6) were treated for 24 hours with the sample compounds solubilized in DMSO. Compounds were added at 1-10 μM each. Standardized protein samples were electrophoresed and imaged as described in the immunoblotting description above. FIGS. 6-18 depicts the CURE-PRO-mediated BRD4 degradation for BRD monomers (JQ1 derivatives comprising of catechol linkers), and CRBN ligands, 8048 and 8049 (pomalidomide derivatives comprising boronic acid linkers) combined in a 1:1 ratio.
HeLa cells (2.5×10^6) were treated for 24 hours with the compounds solubilized in DMSO. The compounds were added at 10 μM each. Standardized protein samples were electrophoresed and imaged as described in the immunoblotting section above. […]

BRD4 [2] = molecular target: T1, BRD4; assay: Summary of E3 ligase directed degradation of BRD4, estimated from Western Blot or WES (Tables 1-6); format: cell-based; parameters: endogenous in cells; host or cells: HeLa, MCF7 or HCT116; conditions: for Degradation of BRD4, combination with MDM2 ligand [drawing 463] / Degradation of BRD4, combination with MDM2 ligand [drawing 464]: Table 5; for Degradation of BRD4, combination with MDM2 ligand [drawing 463]: aryl-boronic acid-containing MDM2 ligand drawn as drawing 463 (apparently 8310); for Degradation of BRD4, combination with MDM2 ligand [drawing 464]: aryl-boronic acid-containing MDM2 ligand drawn as drawing 464 (apparently 8312)
Outline: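 HeLa, MCF7 or HCT116 cells treated 24 h with compounds in DMSO, lysed in RIPA buffer; BRD4 levels read by Western blot (ECL detection) or capillary WES with HRP detection. Check mark denotes 30% to 70% or higher protein degradation.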

BRD4 [3] = molecular target: T1, BRD4; assay: CURE-PRO-mediated BRD4 degradation in HeLa cells, WES capillary electrophoresis (ProteinSimple); format: cell-based; parameters: endogenous in cells; host or cells: HeLa
Protocol: as §1, §2
WES Simple analysis was performed on WES system (ProteinSimple-Biotechne) according to the manufacturer's instructions. Total protein concentrations of cell lysates were determined by the Pierce BCA kit (Thermo Fisher). 3 μL of 0.3 μg/uL of the protein lysate was loaded onto a 12- to 230-kDa WES assay plate (ProteinSimple) where 300 nL sample was withdrawn through a capillary, subjected to electrophoretic separation of proteins by size, and followed by the simultaneous, HRP-based detection of proteins using the Anti-Rabbit Detection Module (Proteinsimple: #DM-001). The electropherograms were checked then the automatic peak detection was manually corrected if it was required.
HeLa cells (2.5×10^6) were treated for 4-24 hours with the compounds solubilized in DMSO. After 4 hours, indicated points were washed and cells were left in full growth media. Compounds were added at 10 μM each. […]

BRD4 [4] = molecular target: T1, BRD4; assay: BRD protein family degradation in HCT116 cells with MDM2 ligands, Western blot: BRD4; format: cell-based; parameters: endogenous in cells; host or cells: HeLa, MCF7 or HCT116; conditions: 24 h, with MDM2 ligands 8310 / 8312
Protocol: as §1, with “When indicated, a 15-minute pretreatment with 10 μM pomalidomide, 10 μM VHL298, 10 μM Nutlin3a, 1 μM MG-132 or 1 μM Carfilzomib was performed before the addition of CURE-PROs. For washout studies, after CURE-PRO treatment, media was aspirated and incubated with complete medium for the indicated time before lysis.” left out
HeLa, MCF7, or HCT116 cells (2.5-3×10^6) were treated for 24 hours with the indicated compounds solubilized in DMSO. […] The total protein concentrations were determined by Bradford Protein Assay and 10-20 μg of protein was loaded onto 4-15% Tris-Glycine gradient gels (Biorad). […] Signal was detected with ECL Western Blotting Substrate (Pierce) and X-ray film processed with a Konica SRX-101 X-ray film processor or captured by Bio-Rad's Chemidoc Imaging system. […]

SLC19A1 = assay: Suppression of the c-MYC downstream target gene SLC19A1, RT-PCR in HeLa cells; format: cell-based, Human; conditions: 24 h, 10 μM each
Protocol: The suppression of the expression of the downstream c-MYC target, SLC19A1, was measured by RT-PCR using Power SYBR® Green Cells-to-Ct™ Kit (Life Technologies). Adherent cells were plated on 96 well plates at 5,000 cells per well were treated for 24 h with monomer compounds and compounds capable of reversible interactions (1 nM-100 μM). Cells were subsequently washed in ice-cold PBS processed according to the manufacturer's instructions. Quantitative real-time PCR was performed using a ViiA™ 7 Real-time PCR System (Applied Biosystems, Foster City, CA, USA). GAPDH and ACTB served as internal controls. The primers used were (5′-3′): GAPDH-F: AGCCACATCGCTCAGACAC (SEQ ID NO:9), GAPDH-R: GCCCAATACGACCAAATCC (SEQ ID NO:10), ACTB-F: CCAACCGCGAGAAGATGA (SEQ ID NO:11), ACTB-R: […] (SEQ ID NO:12), SLC19A1-F: […] (SEQ ID NO:13), SLC19A1-R: […] (SEQ ID NO:14).
HeLa cells (1×104) were treated for 24 hours in 96 well plates with the compounds solubilized in DMSO. Compounds were added at 10 μM each and RNA expression measured by the Cells-to Ct method described above (Thermofisher).

MV-4-11 cells = assay: CellTiter-Glo cell viability, MV-4-11 cells; format: cell-based; conditions: 1 nM-100 μM, cotreated 1:1 with CRBN ligand 8049
Protocol: as §1
CellTiter-Glo® 2.0 Cell Viability Assay (Promega) was carried out following the manufacturer's recommendations. Cells were seeded at a density of 1000 cells/well in a white 96 well plates (Corning, #3917) in a total volume of 100 μl with respective monomers, combinations of BRD ligands together with E3 ligase ligands or vehicle control treatment. After a 72 h incubation, 100 ul of the CellTiter-Glo® substrate was added per well and luminescence was read on a Spectramax M5 (Molecular Devices). Dose-response curves were generated using Graphpad Prism software.
MV-4-11 cells (5×104) were treated for 24 hours with the sample compounds solubilized in DMSO. The compounds were added at 1 nM-100 μM each. Cellular viability was determined using the CellTiter-Glo® Luminescent Cell Viability Assay (Promega) described above. FIGS. 19-22 depict the CURE-PRO-mediated loss of cellular viability for BRD monomers (JQ1 derivatives comprising of catechol linkers), and CRBN ligand, 8049 (pomalidomide derivatives comprising boronic acid linkers) combined in a 1:1 ratio.
MV-4-11 cells (1×104) were treated for 72 hours with the compounds solubilized in DMSO. Compounds were added at 10 nM-100 μM each. Cellular viability was determined using the CellTiter-Glo® Luminescent Cell Viability Assay (Promega) described above. FIGS. 47-54 depict the CURE-PRO-mediated loss of cellular viability for BRD monomers (JQ1 derivatives comprising of boronic acid linkers), and CRBN ligands, 8046, 8047, and 8066 (pomalidomide derivatives comprising diol linkers) combined in a 1:1 ratio.

Compound	BRD4 degradation with pomalidomide and the BRD ligand (no 8047) (BRD4 [1])	BRD4 degradation after preincubation with pomalidomide (BRD4 [1]; 1:1 with CRBN ligand 8047, pomalidomide preincubated 15 min at equimolar concentration)	Degradation of BRD4, combination with CRBN ligand [drawing 421] (BRD4 [2]; Table 1, CRBN ligand drawn as drawing 421 (by the text apparently 8047))	Degradation of BRD4, combination with CRBN ligand [drawing 422] (BRD4 [2]; Table 1, CRBN ligand drawn as drawing 422 (by the text apparently 8066))	BRD4 degradation, time dependence and washout (BRD4 [3]; 4-24 h, 10 μM each, co-dosed with CRBN ligand 8047, washed after 4 h)	BRD4 degradation (BRD4 [3]; 24 h, co-dosed with CRBN ligand 8047, 100 nM-10 μM each)	selectivity of degradation within the BRD protein family (BRD4 [4])	suppression of SLC19A1 expression (SLC19A1; with MDM2 ligand 8310)	suppression of SLC19A1 expression (SLC19A1; with MDM2 ligand 8312)	toxicity / loss of cellular viability (CellTiter-Glo) (MV-4-11 cells)	Degradation of BRD4, combination with MDM2 ligand [drawing 463] (BRD4 [2])	Degradation of BRD4, combination with MDM2 ligand [drawing 464] (BRD4 [2])	Degradation of BRD4, combination with CRBN ligand [drawing 457] (BRD4 [2]; Table 4, aryl-boronic acid-containing CRBN ligand drawn as drawing 457 (by the text apparently 8048))
CCNC(=O)C[C@@H]1N=C(c2ccc(Sc3cccc(B(O)O)c3)cc2)c2cc(OC)ccc2-n2c(C)nnc21 [BRD-E52, (3-((4-((4S)-4-(2-(ethylamino)-2-oxoethyl)-8-methoxy-1-methyl-4H-benzo[f][1,2,4]triazolo[4,3-a][1,4]diazepin-6-yl)phenyl)thio)phenyl)boronic acid]	failed to induce BRD4 degradation	inhibition of CURE-PRO-mediated BRD4 degradation	✓ (A black check mark indicates efficacy of 30% to 70% or higher protein degradation)	✓ (A black check mark indicates efficacy of 30% to 70% or higher protein degradation)	marked BRD4 degradation after 4 h with sustained degradation for up to 8 h after drugs are washed out	marked BRD4 degradation							
CCNC(=O)C[C@@H]1N=C(c2ccc(Cl)cc2)c2cc(OCCNC(=O)c3cccc(O)c3O)ccc2-n2c(C)nnc21 [BRD-N25]							some selectivity for BRD3 and BRD4 over BRD2 for 8310	a rightward shift in the curve and an increase in the Ct values	a rightward shift in the curve and an increase in the Ct values	a concentration-dependent loss in cellular viability was observed; also recorded: increased toxicity	✓ (A black check mark indicates efficacy of 30% to 70% or higher protein degradation)	✓ (A black check mark indicates efficacy of 30% to 70% or higher protein degradation)	
CCNC(=O)C[C@@H]1N=C(c2ccc(Cl)cc2)c2cc(OCCOCCNC(=O)c3cccc(O)c3O)ccc2-n2c(C)nnc21 [BRD-N39, N-(2-(2-(((4S)-6-(4-chlorophenyl)-4-(2-(ethylamino)-2-oxoethyl)-1-methyl-4H-benzo[f][1,2,4]triazolo[4,3-a][1,4]diazepin-8-yl)oxy)ethoxy)ethyl)-2,3-dihydroxybenzamide]							some selectivity for BRD4 over BRD2 and BRD3	a rightward shift in the curve and an increase in the Ct values	Complete suppression of SLC19A1 was evident		✓ (A black check mark indicates efficacy of 30% to 70% or higher protein degradation)	✓ (A black check mark indicates efficacy of 30% to 70% or higher protein degradation)	✓ (A black check mark indicates efficacy of 30% to 70% or higher protein degradation)
